Holding throughout (type): cell-based, mouse
One assay deals with SSEA1. Briefly: Immunofluorescence staining, SSEA1 in iPS cells. As to conditions: 72 hours, control group = 100%. An excerpt: Nanog and SSEA1 are also marker proteins of stem cells, and their expression levels could be measured by immunofluorescence staining to further confirm whether BP can effectively maintain the self-renewal and pluripotency of stem cells.
An experimental group medium (BP5, BP10, BP20 or BP40), a LIF-containing medium (without BP), and a control group medium (without BP) were used respectively in a 6-well culture dish which comprises a slide in each well to culture ES cells with an initial density of 1×10^4 per well for 72 hours. The medium was removed and the cells were washed with PBS. Next, PBS was removed, and then 4% paraformaldehyde was added to perform the fixation at room temperature for 10 minutes. Next, paraformaldehyde was removed, and then slides were washed with 0.1% Tween-20/1X PBS three times for 10 minutes each time. The 0.3% Tween-20/1X PBS was added and held at room temperature for 30 minutes to penetrate the cell membrane to benefit the dye entry. After the slides were washed three times with 0.1% Tween-20, 5% FBS/1×PBS was added to perform a blocking reaction at room temperature for 2 hours, and then reacting with the primary antibody [anti-Nanog (Novus) or anti-SSEA1 (Millipore)] at a dilution of 1:100 at room temperature overnight. Slides were then washed 5 times with 0.1% Tween-20, then reacting with the secondary antibody [FITC-conjugated anti-mouse IgG or TRITC-conjugated anti-rabbit IgG (Sigma-Aldrich)] at a dilution of 1:500. After washed with 0.1% Tween-20 for 10 minutes, slides were mounted with the DAPI-containing UltraCruz™ Mounting medium and observed using an inverted fluorescent microscope.
By using the above culture conditions, an experimental group medium (BP5, BP10, BP20 or BP40), a LIF-containing medium (without BP), and a control group medium (without BP) were used respectively to culture iPS cells. The staining of iPS cells was performed by using the steps described above.

A further assay has as its system Stat3. As to the kind of experiment: Real-time PCR, Stat3 mRNA in ES cells. As to conditions: for Stat3 Gene expression level: ES cells, control group = 100%. On the procedure: (§1) An experimental group medium (BP5, BP10, BP20 or BP40) and a control group medium (without BP) were added respectively to perform the following steps. ES cells were cultured with an initial density of 1×10^4 per well in a 6-well culture dish. The medium was removed until the cells growth to be about 70 to 80% confluence, and then 1 ml TRIzol (Invitrogen) was added into each well. The cells were incubated for 5 minutes, and then was scraped by a spatula and placed into a 1.5 ml microtube to be lysed adequately. Chloroform (0.2 ml) was added into the microtubes. The mixture was shaken up and down for 15 seconds, and then incubated at room temperature for 2 to 3 minutes. Thereafter, the mixture was centrifuged at 12000 rpm at 4° C. for 15 minutes, and the supernatant was removed into another 1.5 ml microtube and isopropanol (0.5 ml) was added into the microtube with well mixing. The mixture was incubated at room temperature for 10 minutes and then centrifuged at 12000 rpm at 4° C. for 10 minutes. The supernatant was then removed. One ml of 70% ethanol containing DEPC.H2O was used to wash the remaining sediment. The sediment was centrifuged at 7500 rpm at 4° C. for 5 minutes. The supernatant was removed. The sediment was dried by vacuum suction. The dried samples were dissolved in about 0.01 to 0.02 ml of DEPC.H2O to obtain the experimental group RNA and control group RNA. Both groups were stored at −80° C.
(§2) The OD value of RNA samples in both groups obtained from the above Experiment I were measured at a wavelength of 260 nm (RNA: OD260=1 for a 40 μg/mL solution). Each RNA sample (2 μl) was added with RNA-free water until the volume of the sample reached 10 μl. Two μl oligo (dT) (100 μg/ml) was added into each sample, and the samples were incubated at 65° C. for 5 minutes. Then, the samples were immediately placed on ice and spun down. Next, 6.5 μl of a reaction solution [4 μl of 5× buffer+1 μl of 0.1 M DTT+1 μl of RNase out+0.5 μl of SSIII (Invitrogen)] was added into each of the samples, and the samples were incubated at 50° C. for about 30 to 60 minutes and at 75° C. for 15 minutes to obtain the experimental group cDNA and control group cDNA. Both groups were stored at −80° C.
(§3) This experiment was used to detect the expression levels of ES cell-related genes, i.e., Oct4 and Sox2, etc. First, 4 μl of the experimental group cDNA or control group cDNA was added into each well of a 96-well micro-reaction plate, and mixed with 6 μl of a reaction solution [0.5 μl of 6 μM forward primer+0.5 μl of 6 μM reverse primer+5 μl of SYBR Green PCR Master mix (Roche)], wherein the SYBR Green PCR Master mix included the reagents needed for Q-PCR, such as dNTPs, MgCl, Taq DNA polymerase and 2×SYBR® Green I solution. […] The cycle threshold (CT) values were measured. […]
On the technique in general: In qPCR the cycle at which signal appears reflects the starting amount.

For another assay, the system named is LIF. As to the kind of experiment: Real-time PCR, cytokine gene LIF in ES cells. The following applies: for LIF mRNA expression level: ES cells, control group = 100%. As for the experimental part:
as §1, §2, §3

Setting [1] is: LIF-containing medium (LIF 4 ng/ml, without BP).
Setting [2] is: BP10 medium (about 10 μg BP/ml).

In the assay with SSEA1 (setting [1]), “LIF: multifunctional cell factor used to maintain pluripotency of stem cells; LIF-containing medium (4 ng/ml, without BP) as comparison” yielded an SSEA1 expression level of 230%. Also, in the assay with Stat3 (setting [1]), the “Stat3 Gene expression level” value amounted to 194%. Moreover, in the assay with LIF (LIF-containing medium (LIF 4 ng/ml)), the “LIF mRNA expression level” value came to 81%.

`CCCC=C1OC(=O)c2ccccc21` [BP, n-butylidenephthalide]: the SSEA1 expression level in the assay on SSEA1 (BP5 medium (about 5 μg BP/ml)) was 117%; in the assay with SSEA1 (setting [2]), 101%; with SSEA1 (BP20 medium (about 20 μg BP/ml)), 94%; with SSEA1 (BP40 medium (about 40 μg BP/ml)), 137%. In addition, the “Stat3 Gene expression level” value was 169% in the assay on Stat3 (BP5 medium (about 5 μg BP/ml)) and 151% in the assay on Stat3 (setting [2]). Also, the “mRNA expression level of Stat3” value in the assay with Stat3 (BP-containing ES cell medium (BP5 or BP10), result in words) is listed as “significantly up-regulated”. Further, the “LIF mRNA expression level” value stood at 113% in the assay on LIF (BP5 medium (about 5 μg BP/ml)) and 184% with LIF (setting [2]). The “mRNA expression level of LIF” value in the assay with LIF (BP-containing ES cell medium, result in words) is listed as “significantly up-regulated”.

(Values after patent US20150056702A1, “METHOD AND KIT FOR CULTURING STEM CELLS” (China Medical University, priority 2013, published 2015).)
